Values after ≈ are worked out from the molar mass of the structure shown. Active and inactive are the calls of the source. The calls are words filed in the database; no cut-off is given here.
Assays:
[1] = AUC (0 to infinity) in Cynomolgus monkey at 1 mg/kg, iv; assay type: ADME, organism-based, Macaca fascicularis; details: in vivo
[2] = AUC (0 to infinity) in Sprague-Dawley rat at 0.5 mg/kg, iv; assay type: ADME, organism-based; details: in vivo
[3] = Unbound drug concentration in C57BL/6 mouse brain at 10 mg/kg, po measured after 4 hrs by LC-MS/MS analysis; assay type: ADME, organism-based; details: in vivo
[4] = target: T1, Potassium channel subfamily K member 13 (Mus musculus, UniProt Q8R1P5); test: Inhibition of mouse KCNK13 transfected in HEK293 cells; assay type: cell-based
T1 sequence (Q8R1P5 whole entry): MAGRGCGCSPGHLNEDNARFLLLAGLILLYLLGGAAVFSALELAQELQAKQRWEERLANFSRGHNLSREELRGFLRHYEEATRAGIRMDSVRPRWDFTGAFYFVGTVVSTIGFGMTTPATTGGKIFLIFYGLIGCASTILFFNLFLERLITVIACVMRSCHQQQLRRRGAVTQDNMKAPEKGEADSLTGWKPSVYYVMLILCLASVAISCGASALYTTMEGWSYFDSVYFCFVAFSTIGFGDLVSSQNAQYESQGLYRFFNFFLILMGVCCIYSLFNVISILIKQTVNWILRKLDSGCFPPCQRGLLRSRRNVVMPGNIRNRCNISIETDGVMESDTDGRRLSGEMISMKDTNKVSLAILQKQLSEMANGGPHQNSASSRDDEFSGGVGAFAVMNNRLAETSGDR

[5] = Clearance in Beagle dog at 1 mg/kg, iv; assay type: ADME, organism-based, Canis lupus familiaris; details: in vivo
[6] = AUC (0 to infinity) in Beagle dog at 10 mg/kg, po; assay type: ADME, organism-based, Canis lupus familiaris; details: in vivo
[7] = Oral bioavailability in Beagle dog at 10 mg/kg; assay type: ADME, organism-based, Canis lupus familiaris; details: in vivo
[8] = Metabolic stability in human liver microsomes assessed as intrinsic clearance; assay type: ADME, Microsome; details: read-out: CLH
[9] = target: Voltage-gated inwardly rectifying potassium channel KCNH2 (Homo sapiens, UniProt Q12809); test: Inhibition of hERG; assay type: toxicity
[10] = Half life in Cynomolgus monkey at 3 mg/kg, po; assay type: ADME, organism-based, Macaca fascicularis; details: in vivo
[11] = target: NACHT, LRR and PYD domains-containing protein 3 (Mus musculus) (UniProt Q8R4B8); test: Inhibition of NLRP3 inflammasome-mediated IL-1beta release in LPS/ATP-induced C57Bl6 mouse hippocampus at 1 uM pretreated for 1 hr followed by ATP addition measured after 3 hrs by ELISA; assay type: tissue-based; details: time 4.0 hrs
[12] = Oral bioavailability in Sprague-Dawley rat at 3 mg/kg; assay type: ADME, organism-based; details: in vivo
[13] = Tmax in Cynomolgus monkey at 3 mg/kg, po; assay type: ADME, organism-based, Macaca fascicularis; details: in vivo
[14] = AUC (0 to infinity) in Beagle dog at 1 mg/kg, iv; assay type: ADME, organism-based, Canis lupus familiaris; details: in vivo
HEK293 = test: Inhibition of recombinant human KCNK6 transfected in HEK293 cells assessed as reduction in thallium influx at 30 uM incubated for 15 mins in dark by FLIPR assay relative to control; assay type: cell-based
[15] = Oral bioavailability in Cynomolgus monkey at 3 mg/kg; assay type: ADME, organism-based, Macaca fascicularis; details: in vivo
[16] = target: NACHT, LRR and PYD domains-containing protein 3 (Mus musculus) (UniProt Q8R4B8); test: Inhibition of NLRP3 inflammasome-mediated IL-1beta release in LPS-primed neonatal C57BL/6 P1-4 mouse microglia pretreated for 30 mins followed by media removal and compound re-addition with K+-free buffer measured after 2 hrs by ELISA relative to control; assay type: cell-based; details: time 150.0 min
[17] = target: T2, Potassium channel subfamily K member 13 (Mus musculus) (UniProt Q8R1P5); test: Inhibition of mouse KCNK13 transfected in HEK293 cells assessed as reduction in thallium influx incubated for 15 mins in dark by FLIPR assay relative to control; assay type: cell-based
T2 sequence (whole entry): T1 sequence (Q8R1P5 whole entry)

[18] = Half life in Cynomolgus monkey at 1 mg/kg, iv; assay type: ADME, organism-based, Macaca fascicularis; details: in vivo
[19] = target: T3, Potassium channel subfamily K member 13 (Homo sapiens) (UniProt Q9HB14); test: Inhibition of human KCNK13 transfected in HEK293 cells assessed as reduction in thallium influx incubated for 15 mins in dark by FLIPR assay relative to control; assay type: cell-based
T3 sequence (whole entry): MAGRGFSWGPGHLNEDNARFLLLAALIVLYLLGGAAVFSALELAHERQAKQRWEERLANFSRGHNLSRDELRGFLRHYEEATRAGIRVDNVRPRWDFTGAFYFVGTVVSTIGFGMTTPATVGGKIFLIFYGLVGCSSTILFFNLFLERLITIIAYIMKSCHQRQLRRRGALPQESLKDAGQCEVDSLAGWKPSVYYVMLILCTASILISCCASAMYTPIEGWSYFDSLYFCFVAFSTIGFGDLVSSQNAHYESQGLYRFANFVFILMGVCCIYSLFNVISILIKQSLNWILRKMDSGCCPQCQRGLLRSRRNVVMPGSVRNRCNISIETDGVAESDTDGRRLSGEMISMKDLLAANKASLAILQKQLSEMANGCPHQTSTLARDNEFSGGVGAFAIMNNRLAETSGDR

[20] = Metabolic stability in mouse liver microsomes assessed as intrinsic clearance; assay type: ADME, Microsome; details: read-out: CLH
[21] = Half life in Beagle dog at 1 mg/kg, iv; assay type: ADME, organism-based, Canis lupus familiaris; details: in vivo
[22] = Tmax in Beagle dog at 10 mg/kg, po; assay type: ADME, organism-based, Canis lupus familiaris; details: in vivo
[23] = target: Sodium channel protein type 5 subunit alpha (Homo sapiens, UniProt Q14524); test: Inhibition of NaV1.5 (unknown origin); assay type: toxicity
[24] = Ratio of drug concentration in brain to plasma C57BL/6 mouse at 10 mg/kg, po measured after 4 hrs by LC-MS/MS analysis; assay type: ADME, organism-based; details: brain and plasma, read-out: BPR
[25] = Kinetic aqueous solubility of compound at pH 7.4; assay type: physicochemical; details: buffer, read-out: Kinetic_solubility
[26] = target: Voltage-dependent L-type calcium channel subunit alpha-1C (Homo sapiens, UniProt Q13936); test: Inhibition of CaV1.2 (unknown origin); assay type: toxicity
[27] = C0 in Cynomolgus monkey at 1 mg/kg, iv; assay type: ADME, organism-based, Macaca fascicularis; details: in vivo
[28] = Clearance in Sprague-Dawley rat at 0.5 mg/kg, iv; assay type: ADME, organism-based; details: in vivo
[29] = Cmax in Beagle dog at 10 mg/kg, po; assay type: ADME, organism-based, Canis lupus familiaris; details: in vivo
[30] = Cmax in Sprague-Dawley rat at 3 mg/kg, po; assay type: ADME, organism-based; details: in vivo
[31] = target: T4, Potassium channel subfamily K member 13 (Homo sapiens, UniProt Q9HB14); test: Inhibition of human KCNK13 transfected in HEK293 cells assessed as reduction in thallium influx incubated for 15 mins in dark by FLIPR assay; assay type: cell-based
T4 sequence (Q9HB14 whole entry): T3 sequence (whole entry)

[32] = C0 in Beagle dog at 1 mg/kg, iv; assay type: ADME, organism-based, Canis lupus familiaris; details: in vivo
[33] = Cmax in Cynomolgus monkey at 3 mg/kg, po; assay type: ADME, organism-based, Macaca fascicularis; details: in vivo
[34] = Volume of distribution at steady state in Beagle dog at 1 mg/kg, iv; assay type: ADME, organism-based, Canis lupus familiaris; details: in vivo, read-out: Vdss
[35] = Clearance in Cynomolgus monkey at 1 mg/kg, iv; assay type: ADME, organism-based, Macaca fascicularis; details: in vivo
[36] = Volume of distribution at steady state in Cynomolgus monkey at 1 mg/kg, iv; assay type: ADME, organism-based, Macaca fascicularis; details: in vivo, read-out: Vdss
[37] = Volume of distribution at steady state in Sprague-Dawley rat at 0.5 mg/kg, iv; assay type: ADME, organism-based; details: in vivo, read-out: Vdss
[38] = Unbound drug concentration in C57BL/6 mouse plasma at 10 mg/kg, po measured after 4 hrs by LC-MS/MS analysis; assay type: ADME, organism-based; details: in vivo

NACHT, LRR and PYD domains-containing protein 3 (Mus musculus), sequence (Q8R4B8 whole entry, the tested form may be a part): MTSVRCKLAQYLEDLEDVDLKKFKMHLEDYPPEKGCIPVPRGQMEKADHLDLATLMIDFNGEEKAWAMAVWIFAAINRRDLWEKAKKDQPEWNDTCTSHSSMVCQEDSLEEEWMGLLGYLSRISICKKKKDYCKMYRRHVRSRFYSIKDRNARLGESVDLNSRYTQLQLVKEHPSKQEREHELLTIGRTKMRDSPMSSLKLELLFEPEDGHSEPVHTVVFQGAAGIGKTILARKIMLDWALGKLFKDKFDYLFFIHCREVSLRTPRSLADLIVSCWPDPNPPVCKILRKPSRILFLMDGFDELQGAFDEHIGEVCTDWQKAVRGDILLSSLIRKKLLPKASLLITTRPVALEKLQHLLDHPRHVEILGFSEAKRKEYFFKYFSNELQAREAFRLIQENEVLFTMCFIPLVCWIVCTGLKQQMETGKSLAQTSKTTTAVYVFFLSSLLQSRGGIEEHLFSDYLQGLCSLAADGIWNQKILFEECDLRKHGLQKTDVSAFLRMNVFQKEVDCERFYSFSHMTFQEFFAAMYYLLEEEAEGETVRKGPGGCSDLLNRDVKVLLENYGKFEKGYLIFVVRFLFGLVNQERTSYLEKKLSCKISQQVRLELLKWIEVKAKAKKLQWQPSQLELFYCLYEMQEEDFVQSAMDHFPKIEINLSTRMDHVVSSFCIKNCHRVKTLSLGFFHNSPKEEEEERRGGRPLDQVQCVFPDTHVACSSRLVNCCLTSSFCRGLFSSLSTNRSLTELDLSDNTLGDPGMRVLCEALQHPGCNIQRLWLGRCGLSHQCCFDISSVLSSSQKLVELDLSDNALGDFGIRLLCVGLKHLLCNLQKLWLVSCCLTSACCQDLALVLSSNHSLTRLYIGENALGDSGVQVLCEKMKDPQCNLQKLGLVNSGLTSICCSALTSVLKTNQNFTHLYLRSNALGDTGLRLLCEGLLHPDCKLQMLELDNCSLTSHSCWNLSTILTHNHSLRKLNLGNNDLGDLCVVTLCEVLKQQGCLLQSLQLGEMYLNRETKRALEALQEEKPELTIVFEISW
Voltage-dependent L-type calcium channel subunit alpha-1C, sequence (Q13936 whole entry): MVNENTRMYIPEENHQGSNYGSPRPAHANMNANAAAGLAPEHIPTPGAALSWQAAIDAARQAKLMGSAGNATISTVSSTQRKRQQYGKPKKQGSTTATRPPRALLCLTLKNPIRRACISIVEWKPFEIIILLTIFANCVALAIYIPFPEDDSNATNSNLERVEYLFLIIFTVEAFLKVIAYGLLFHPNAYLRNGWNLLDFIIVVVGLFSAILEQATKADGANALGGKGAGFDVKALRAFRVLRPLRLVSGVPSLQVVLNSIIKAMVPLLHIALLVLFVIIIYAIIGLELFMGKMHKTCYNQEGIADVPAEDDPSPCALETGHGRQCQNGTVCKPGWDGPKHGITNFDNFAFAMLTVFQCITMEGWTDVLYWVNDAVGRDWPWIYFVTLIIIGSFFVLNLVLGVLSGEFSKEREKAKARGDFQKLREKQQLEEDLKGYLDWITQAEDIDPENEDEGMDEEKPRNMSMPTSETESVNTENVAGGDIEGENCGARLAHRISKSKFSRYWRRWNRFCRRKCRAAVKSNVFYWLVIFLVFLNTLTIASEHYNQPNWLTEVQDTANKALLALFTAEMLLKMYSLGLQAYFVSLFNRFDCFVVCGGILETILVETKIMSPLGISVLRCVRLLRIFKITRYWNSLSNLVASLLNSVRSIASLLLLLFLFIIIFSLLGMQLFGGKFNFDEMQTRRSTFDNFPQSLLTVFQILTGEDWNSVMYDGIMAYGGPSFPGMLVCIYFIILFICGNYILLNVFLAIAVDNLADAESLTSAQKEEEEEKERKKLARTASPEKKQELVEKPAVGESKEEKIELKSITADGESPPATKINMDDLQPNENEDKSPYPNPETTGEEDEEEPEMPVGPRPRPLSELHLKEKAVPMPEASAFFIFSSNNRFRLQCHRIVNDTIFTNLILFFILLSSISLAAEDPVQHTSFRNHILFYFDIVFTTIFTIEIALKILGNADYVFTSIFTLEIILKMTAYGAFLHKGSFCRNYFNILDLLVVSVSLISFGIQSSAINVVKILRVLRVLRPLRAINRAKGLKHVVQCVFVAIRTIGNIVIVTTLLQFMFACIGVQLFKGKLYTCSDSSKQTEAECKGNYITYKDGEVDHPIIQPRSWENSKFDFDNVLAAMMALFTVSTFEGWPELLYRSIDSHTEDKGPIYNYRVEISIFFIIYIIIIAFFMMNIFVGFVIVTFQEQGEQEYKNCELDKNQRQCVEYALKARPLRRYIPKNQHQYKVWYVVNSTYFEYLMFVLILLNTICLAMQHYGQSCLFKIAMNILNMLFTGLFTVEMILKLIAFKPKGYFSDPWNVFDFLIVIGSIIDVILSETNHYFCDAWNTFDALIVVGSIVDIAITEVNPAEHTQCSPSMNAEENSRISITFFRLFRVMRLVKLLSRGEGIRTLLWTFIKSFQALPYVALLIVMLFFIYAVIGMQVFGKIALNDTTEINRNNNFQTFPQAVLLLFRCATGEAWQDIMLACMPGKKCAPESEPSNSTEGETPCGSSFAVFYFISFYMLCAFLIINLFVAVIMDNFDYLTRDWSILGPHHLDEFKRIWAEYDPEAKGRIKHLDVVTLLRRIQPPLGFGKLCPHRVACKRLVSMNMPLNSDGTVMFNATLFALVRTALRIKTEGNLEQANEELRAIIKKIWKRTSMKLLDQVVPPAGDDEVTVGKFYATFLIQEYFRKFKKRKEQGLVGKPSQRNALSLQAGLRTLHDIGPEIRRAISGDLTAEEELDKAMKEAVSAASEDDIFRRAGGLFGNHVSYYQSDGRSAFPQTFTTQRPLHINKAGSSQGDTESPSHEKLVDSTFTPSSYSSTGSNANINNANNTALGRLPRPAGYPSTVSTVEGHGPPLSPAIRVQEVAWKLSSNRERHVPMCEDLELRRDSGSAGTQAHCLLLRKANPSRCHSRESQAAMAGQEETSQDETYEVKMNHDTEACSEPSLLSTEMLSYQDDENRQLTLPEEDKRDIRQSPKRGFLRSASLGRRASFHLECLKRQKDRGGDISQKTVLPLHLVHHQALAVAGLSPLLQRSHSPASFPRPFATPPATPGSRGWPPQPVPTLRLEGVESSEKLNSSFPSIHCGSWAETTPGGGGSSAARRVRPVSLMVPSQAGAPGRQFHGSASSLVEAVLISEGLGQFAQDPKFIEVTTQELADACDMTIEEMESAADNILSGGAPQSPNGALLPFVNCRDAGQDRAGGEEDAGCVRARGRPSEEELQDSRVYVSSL
Voltage-gated inwardly rectifying potassium channel KCNH2, sequence (Q12809 whole entry): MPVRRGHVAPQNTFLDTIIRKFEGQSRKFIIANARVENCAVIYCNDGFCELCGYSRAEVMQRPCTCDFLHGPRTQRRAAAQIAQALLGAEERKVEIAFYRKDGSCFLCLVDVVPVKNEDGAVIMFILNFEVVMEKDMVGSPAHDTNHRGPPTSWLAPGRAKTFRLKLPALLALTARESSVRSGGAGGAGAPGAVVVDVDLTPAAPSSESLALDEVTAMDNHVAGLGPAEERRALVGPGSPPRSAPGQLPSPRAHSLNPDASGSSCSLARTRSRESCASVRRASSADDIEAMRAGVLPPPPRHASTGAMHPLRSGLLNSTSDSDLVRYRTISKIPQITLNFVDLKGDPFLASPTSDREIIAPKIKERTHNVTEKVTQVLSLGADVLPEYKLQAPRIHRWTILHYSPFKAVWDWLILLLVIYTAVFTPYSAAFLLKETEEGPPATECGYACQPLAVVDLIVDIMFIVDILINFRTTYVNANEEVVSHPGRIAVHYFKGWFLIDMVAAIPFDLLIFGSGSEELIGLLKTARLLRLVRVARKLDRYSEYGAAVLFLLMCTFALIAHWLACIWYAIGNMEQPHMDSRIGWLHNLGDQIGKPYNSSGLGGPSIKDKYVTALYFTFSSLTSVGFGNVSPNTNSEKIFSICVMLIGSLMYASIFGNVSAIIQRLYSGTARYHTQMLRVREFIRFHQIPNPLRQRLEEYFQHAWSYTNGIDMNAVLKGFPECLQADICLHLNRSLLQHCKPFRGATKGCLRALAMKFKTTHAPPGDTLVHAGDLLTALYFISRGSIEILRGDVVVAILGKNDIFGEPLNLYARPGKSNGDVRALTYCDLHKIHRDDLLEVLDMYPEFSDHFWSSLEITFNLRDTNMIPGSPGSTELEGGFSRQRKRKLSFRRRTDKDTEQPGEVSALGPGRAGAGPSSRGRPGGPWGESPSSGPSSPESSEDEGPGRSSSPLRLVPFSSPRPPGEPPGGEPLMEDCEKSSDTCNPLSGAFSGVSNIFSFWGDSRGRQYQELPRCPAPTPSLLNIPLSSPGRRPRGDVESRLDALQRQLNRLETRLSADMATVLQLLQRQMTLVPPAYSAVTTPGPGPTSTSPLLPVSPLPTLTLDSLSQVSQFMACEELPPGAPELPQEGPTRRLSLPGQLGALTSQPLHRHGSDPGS

- AUC(0-inf) [1]: 782 ng·h/mL
- AUC(0-inf) [2]: 222 ng·h/mL
- Cp(f) [3]: 248 nM
- IC50 [4]: 28 nM
- clearance [5]: 38 mL/min/kg
- AUC [6]: 630 ng·h/mL
- F [7]: 41%
- microsomal CLint [8]: < 9.6 µL/min/mg
- half-life [10]: 1.9 h
- inhibition [11]: Active
- bioavailability [12]: 87%
- Tmax [13]: 1 h
- AUC [14]: 438 ng·h/mL
- bioavailability [15]: 24%
- Imax [16]: 59.1%
- Imax [17]: 97%
- half-life [18]: 1.1 h
- Imax [19]: 100%
- microsomal CLint [20]: < 9.6 µL/min/mg
- half-life [21]: 0.5 h
- Tmax [22]: 1.25 h
- Kp at 4 h [24]: 0.84
- solubility kinetic [25]: 94 µM (≈ 29.3 µg/mL)
- C0 [27]: 896 ng/mL
- clearance [28]: 35 mL/min/kg
- Cmax [29]: 241 ng/mL
- Cmax [30]: 468 ng/mL
- IC50 [31]: 41 nM
- C0 [32]: 626 ng/mL
- Cmax [33]: 165 ng/mL
- Vd [34]: 1.42 L/kg
- clearance [35]: 22 mL/min/kg
- Vd [36]: 1.45 L/kg
- Vd [37]: 1.85 L/kg
- Cp(f) [38]: 372 nM
SMILES: Nc1nonc1-c1nc2cccc(F)c2n1Cc1cccnn1
- inhibition (INH) [9]: Not Active
- Imax (HEK293): 10.7%
- inhibition (INH) [23]: Not Active
- inhibition (INH) [26]: Not Active
